Measurements from patent US20090306214A1, “Use of Syk Tyrosine Kinase Inhibitors for the Treatment of Cell Proliferative Disorders” (priority 2006, published 2009).
“Also recorded” adds a separate entry of the source.

Columns and labels:
HL-60 cells [1] = assay: Viability of HL-60 cells after 3 days, XTT method; format: cell-based, human
Text: (§1) Secondly, the effect of compounds of the invention may be compared to the natural inhibitor of Syk, piceatannol.

Jurkat cells = assay: Jurkat cell survival after a seven day period (Syk-containing); format: cell-based; settings: 50 μg/ml; seven days; FIG. 4
Procedure: FIG. 4 illustrates the effect of AV 61S and AV 74S on Jurkat cell survival after a seven day period;
(§2) The jurkat E6.1 line is a Syk-deficient line; in fact, AV 61S after 7 days has no effect on this cell line (i.e., neither apoptosis nor inhibition, see […]). […] The viability study has been performed after 24 and 48 hours of incubation, each time for 3 evaluations; within 1, 3 and 6 hours.

E6.1 Jurkat cells = assay: E6.1 Jurkat (Syk-deficient) cell survival and viability; format: cell-based
Procedure: FIG. 18 illustrates, in comparison with cyclosporin-treated Jurkat cells, the viability of E6.1 Jurkat cells treated with differing concentrations of AV 61S or AV 74S after 24 hours; and
FIG. 19 illustrates, in comparison with cyclosporin-treated Jurkat cells, the viability of E6.1 Jurkat cells treated with differing concentrations of AV 61S or AV 74S after 48 hours.
as §2

PHA-activated PBMCs = assay: Inhibition of PHA-activated PBMCs (lymphocyte proliferation, thymidine incorporation); format: cell-based, human; settings: varying concentrations
human PBMC monocytes = assay: Effect on human PBMC monocytes; format: cell-based; settings: FIGS. 11 and 12
Text: FIG. 12 illustrates the effect of AV 74S treatment on monocytes;
FIGS. 11 and 12 compare the effect of compounds of the invention—AV 61S and AV 74S—on human PBMC T and B cells (FIG. 11) versus human PBMC monocytes (FIG. 12). […] T cells contain ZAP-70, rather than Syk, but B lymphocytes do contain Syk. […] As such, the effect seen on the B and T cells is believed to be due to the activity on the B cells, not the T cells.

[2] = Viability of HL-60 cells after 3 days, XTT method; format: cell-based, human; settings: human, HL-60 cells
Text: as §1

HL-60 cells [3] = assay: Apoptosis of HL-60 cells after 2 days; format: cell-based, human
Text: as §1

Row | SMILES | viability of HL-60 cells (HL-60 cells [1]; 50 μg/ml + Pic 10 μM) | viability of HL-60 cells (HL-60 cells [1]; 50 μg/ml + Pic 30 μM) | viability of HL-60 cells (HL-60 cells [1]; 50 μg/ml, no piceatannol) | viability of HL-60 cells (HL-60 cells [1]; 100 μg/ml + Pic 10 μM) | viability of HL-60 cells (HL-60 cells [1]; 100 μg/ml + Pic 30 μM) | viability of HL-60 cells (HL-60 cells [1]; 100 μg/ml, no piceatannol) | killing of Syk-containing Jurkat cells (Jurkat cells) [%] | viability of E6.1 Jurkat cells (E6.1 Jurkat cells; 24 and 48 hours of incubation, FIGS. 18 and 19) | effect on Syk-deficient Jurkat E6.1 cell survival (E6.1 Jurkat cells; after 7 days, FIG. 3) | inhibitory effect on PHA-activated PBMCs (PHA-activated PBMCs; DMSO carrier, FIG. 1) | inhibitory effect on PHA-activated PBMCs (PHA-activated PBMCs; PBS carrier, FIG. 2) | effect on monocytes as compared to T and B cells (human PBMC monocytes) | viability at 3 days, 10 μM ([2]; Pic 10 μM alone) [%] | viability at 3 days, 30 μM ([2]; Pic 30 μM alone) [%] | Apoptosis of HL-60 cells (HL-60 cells [3]; Pic. 10 μM alone) [%] | Apoptosis of HL-60 cells (HL-60 cells [3]; Pic. 30 μM alone) [%]
1 | CC(CO)OCC(C)OCC(C)OCC(C)OCC(C)OCC(C)OCC(C)OC[C@H](Cc1ccccc1)NC(=O)CCc1ccc(O)cc1 (stereo partly shown) [AV 61S] | 97 % of control | 83 % of control | 81 % of control | 59 % of control | 23 % of control | 36 % of control | ~100 | do not kill them | no effect; also recorded: lack of effect | inhibitory effect | lesser inhibitory effect | more profound on monocytes | – | – | – | –
2 | Oc1cc(O)cc(/C=C/c2ccc(O)c(O)c2)c1 [piceatannol, reference compound] | – | – | – | – | – | – | – | – | – | – | – | – | 89 | 79 | 20 | 33
